# Results reported in US20150133426A1, “SUBSTITUTED PYRROLOPYRIMIDINES” (BAYER PHARMA AKTIENGESELLSCHAFT, priority 2012, published 2015).
# Biological target: T1, human full-length MKNK1 (Homo sapiens, UniProt Q9BUB5, T385D)
# T1 construct: purchased Carna Biosciences 02-145; host or cells: insect cells, baculovirus expression system
# Test: MKNK1 kinase high ATP assay (TR-FRET)
# Type: biochemical
# Conditions: high ATP (2 mM), 15 min preincubation with enzyme, GST-MKNK1 (T344D)
# Outline: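 GST-tagged full-length human MKNK1 (aa 1-424, T344D), baculovirus-expressed, preincubated 15 min with compound, then reacted 30 min at 22 °C with 2 mM ATP and 0.06 µM biotinylated peptide (final).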
# T1 sequence (Q9BUB5 1-424 isoform Q9BUB5-2 T344D): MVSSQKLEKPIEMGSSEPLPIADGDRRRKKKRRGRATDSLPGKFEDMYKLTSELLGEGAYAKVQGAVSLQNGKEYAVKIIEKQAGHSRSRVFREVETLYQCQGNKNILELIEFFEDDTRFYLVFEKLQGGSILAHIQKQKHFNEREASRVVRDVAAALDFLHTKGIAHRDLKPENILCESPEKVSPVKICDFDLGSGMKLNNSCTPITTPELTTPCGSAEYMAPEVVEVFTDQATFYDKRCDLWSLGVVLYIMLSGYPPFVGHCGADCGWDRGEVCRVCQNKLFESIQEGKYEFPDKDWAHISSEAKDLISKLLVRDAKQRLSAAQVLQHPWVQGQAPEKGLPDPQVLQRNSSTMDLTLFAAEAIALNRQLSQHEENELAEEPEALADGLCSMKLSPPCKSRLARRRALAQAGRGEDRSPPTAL
row,IC50 [nM],Compound
1,751,"CCOC(=O)C1CCc2[nH]c3ncnc(Nc4ccccc4N4CCOCC4)c3c2C1 (racemic) [Example 172, (RS)-Ethyl 4-{[2-(morpholin-4-yl)phenyl]amino}-6,7,8,9-tetrahydro-5H-pyrimido[4,5-b]indole-6-carboxylate]"
2,450,"O=C(NCc1ccccc1)C1CCc2[nH]c3ncnc(N4CCc5ccccc54)c3c2C1 (racemic) [Example 209, (RS)—N-Benzyl-4-(2,3-dihydro-1H-indol-1-yl)-6,7,8,9-tetrahydro-5H-pyrimido[4,5-b]indole-6-carboxamide]"
3,103,"COc1ccc(C(F)(F)F)cc1Nc1ncnc2[nH]c3c(c12)CC(C(=O)NC(C)C)CC3 (racemic) [Example 213, (RS)-4-{[2-Methoxy-5-(trifluoromethyl)phenyl]amino}-N-(propan-2-yl)-6,7,8,9-tetrahydro-5H-pyrimido[4,5-b]indole-6-carboxamide]"
4,≥ 20000,COc1ccc(C(F)(F)F)cc1Nc1ncnc2[nH]c3c(c12)CC(F)(F)CC3 [Example 145]
5,36,"CS(=O)(=O)CCCNC(=O)C1CCc2[nH]c3ncnc(Nc4ccc(F)cc4OCCO)c3c2C1 (racemic) [Example 159, (RS)-4-{[4-Fluoro-2-(2-hydroxyethoxy)phenyl]amino}-N-[3-(methylsulfonyl)propyl]-6,7,8,9-tetrahydro-5H-pyrimido[4,5-b]indole-6-carboxamide]"
6,5920,"COc1cc(F)ccc1Sc1ncnc2[nH]c3c(c12)CC(C(=O)NCCCS(C)(=O)=O)CC3 (racemic) [Example 147, (RS)-4-[(4-Fluoro-2-methoxyphenyl)sulfanyl]-N-[3-(methylsulfonyl)propyl]-6,7,8,9-tetrahydro-5H-pyrimido[4,5-b]indole-6-carboxamide]"
7,145,"COc1cc(F)ccc1Nc1ncnc2[nH]c3c(c12)CC(C(=O)NCCCS(C)(=O)=O)CC3 (racemic) [Example 37, (RS)-4-[(4-Fluoro-2-methoxyphenyl)amino]-N-[3-(methylsulfonyl)propyl]-6,7,8,9-tetrahydro-5H-pyrimido[4,5-b]indole-6-carboxamide]"
8,5,"CC(C)Oc1cc2[nH]ncc2cc1Nc1ncnc2[nH]c3c(c12)CC(F)(F)CC3 [Example 232, 6,6-Difluoro-N-[6-(propan-2-yloxy)-1H-indazol-5-yl]-6,7,8,9-tetrahydro-5H-pyrimido[4,5-b]indol-4-amine]"
9,171,"O=C(NC1CC1)C1CCc2[nH]c3ncnc(Nc4ccccc4OC4CCCC4)c3c2C1 (racemic) [Example 191, (RS)-4-{[2-(Cyclopentyloxy)phenyl]amino}-N-cyclopropyl-6,7,8,9-tetrahydro-5H-pyrimido[4,5-b]indole-6-carboxamide]"
10,1650,COCC1(OC)CCc2[nH]c3ncnc(Nc4ccc(F)cc4OC4CCCC4)c3c2C1 (racemic) [Example 134]
11,1790,O=c1[nH]c2ccc(Nc3ncnc4[nH]c5c(c34)CCCC5)cc2[nH]1 [Example 115]
12,710,"CN(C)C(=O)C1CCc2[nH]c3ncnc(Nc4ccccc4OC4CCCC4)c3c2C1 (racemic) [Example 188, (RS)-4-{[2-(Cyclopentyloxy)phenyl]amino}-N,N-dimethyl-6,7,8,9-tetrahydro-5H-pyrimido[4,5-b]indole-6-carboxamide]"
13,42,"CC(C)Oc1cc(F)ccc1Nc1ncnc2[nH]c3c(c12)CSCC3 [Example 11, N-(4-Fluoro-2-isopropoxyphenyl)-5,7,8,9-tetrahydrothiopyrano[3′,4′:4,5]pyrrolo[2,3-d]pyrimidin-4-amine]"
14,8990,"O=C(O)C1CCc2[nH]c3ncnc(N4CCc5ccccc54)c3c2C1 (racemic) [Example 185, (RS)-4-(2,3-Dihydro-1H-indol-1-yl)-6,7,8,9-tetrahydro-5H-pyrimido[4,5-b]indole-6-carboxylic acid]"
15,1130,"CS(=O)(=O)CCCNC(=O)C1CCc2[nH]c3ncnc(Sc4ccc5[nH]ncc5c4)c3c2C1 (racemic) [Example 146, (RS)-4-(1H-Indazol-5-ylsulfanyl)-N-[3-(methylsulfonyl)propyl]-6,7,8,9-tetrahydro-5H-pyrimido[4,5-b]indole-6-carboxamide]"
16,504,"CS(=O)(=O)CCCNC(=O)C1CCc2[nH]c3ncnc(Nc4ccc5[nH]c(=S)sc5c4)c3c2C1 (racemic) [Example 155, (RS)—N-[3-(Methylsulfonyl)propyl]-4-[(2-thioxo-2,3-dihydro-1,3-benzothiazol-6-yl)amino]-6,7,8,9-tetrahydro-5H-pyrimido[4,5-b]indole-6-carboxamide]"
17,193,"CC(C)COc1ccccc1Nc1ncnc2[nH]c3c(c12)CC(C(=O)NCCCS(C)(=O)=O)CC3 (racemic) [Example 153, (RS)-4-{[2-(2-Methylpropoxy)phenyl]amino}-N-[3-(methylsulfonyl)propyl]-6,7,8,9-tetrahydro-5H-pyrimido[4,5-b]indole-6-carboxamide]"
18,45,"CS(=O)(=O)CCCNC(=O)C1CCc2[nH]c3ncnc(Nc4ccc(Cl)c(Cl)c4)c3c2C1 (racemic) [Example 166, (RS)-4-[(3,4-Dichlorophenyl)amino]-N-[3-(methylsulfonyl)propyl]-6,7,8,9-tetrahydro-5H-pyrimido[4,5-b]indole-6-carboxamide]"
19,6,"COc1cc(Cl)c(Cl)cc1Nc1ncnc2[nH]c3c(c12)CC(C(=O)NC1CC1)CC3 (racemic) [Example 20, (RS)—N-Cyclopropyl-4-[(4,5-dichloro-2-methoxyphenyl)amino]-6,7,8,9-tetrahydro-5H-pyrimido[4,5-b]indole-6-carboxamide]"
20,12300,"O=C(O)C1CCc2[nH]c3ncnc(Nc4cc5[nH]c(=O)[nH]c5cc4Cl)c3c2C1 (racemic) [Example 237, (RS)-4-[(6-Chloro-2-oxo-2,3-dihydro-1H-benzimidazol-5-yl)amino]-6,7,8,9-tetrahydro-5H-pyrimido[4,5-b]indole-6-carboxylic acid]"
21,3400,"COc1ccc(C(F)(F)F)cc1Nc1ncnc2[nH]c3c(c12)CC(C(=O)Nc1ccccc1)CC3 (racemic) [Example 214, (RS)-4-{[2-Methoxy-5-(trifluoromethyl)phenyl]amino}-N-phenyl-6,7,8,9-tetrahydro-5H-pyrimido[4,5-b]indole-6-carboxamide]"
22,84,"CNC(=O)C1CCc2[nH]c3ncnc(Nc4ccccc4OC4CCCC4)c3c2C1 (racemic) [Example 189, (RS)-4-{[2-(Cyclopentyloxy)phenyl]amino}-N-methyl-6,7,8,9-tetrahydro-5H-pyrimido[4,5-b]indole-6-carboxamide]"
23,159,"CCNC(=O)C1CCc2[nH]c3ncnc(Nc4cc(F)ccc4OC)c3c2C1 (racemic) [Example 194, (RS)—N-Ethyl-4-[(5-fluoro-2-methoxyphenyl)amino]-6,7,8,9-tetrahydro-5H-pyrimido[4,5-b]indole-6-carboxamide]"
24,6090,"CCOC(=O)C1CCc2[nH]c3ncnc(Nc4cc(F)ccc4OC)c3c2C1 (racemic) [Example 171, (RS)-Ethyl 4-[(5-fluoro-2-methoxyphenyl)amino]-6,7,8,9-tetrahydro-5H-pyrimido[4,5-b]indole-6-carboxylate]"
25,746,"CS(=O)(=O)CCCNC(=O)C1CCc2[nH]c3ncnc(Nc4ccccc4OC(F)(F)F)c3c2C1 (racemic) [Example 32, (RS)—N-[3-(Methylsulfonyl)propyl]-4-{[2-(trifluoromethoxy)phenyl]amino}-6,7,8,9-tetrahydro-5H-pyrimido[4,5-b]indole-6-carboxamide]"
